Data reported in ChEMBL document CHEMBL3431459, “Roche carnitine palmitoyltransferase modulator screening data (supplementary data associated with the publication CHEMBL2216752)”.
pIC50: −log10 of the molar value. ≈ marks a conversion by molar mass, not a printed value.

How the values were obtained:
[1] = molecular target: T1, Carnitine O-palmitoyltransferase 1, muscle isoform (Homo sapiens, UniProt Q92523); experiment: SUPPLEMENTARY: Inhibition of Carnitine palmitoyltransferase 1, muscle isoform; design: species or system Muscle tissue
T1 sequence (Q92523 whole entry): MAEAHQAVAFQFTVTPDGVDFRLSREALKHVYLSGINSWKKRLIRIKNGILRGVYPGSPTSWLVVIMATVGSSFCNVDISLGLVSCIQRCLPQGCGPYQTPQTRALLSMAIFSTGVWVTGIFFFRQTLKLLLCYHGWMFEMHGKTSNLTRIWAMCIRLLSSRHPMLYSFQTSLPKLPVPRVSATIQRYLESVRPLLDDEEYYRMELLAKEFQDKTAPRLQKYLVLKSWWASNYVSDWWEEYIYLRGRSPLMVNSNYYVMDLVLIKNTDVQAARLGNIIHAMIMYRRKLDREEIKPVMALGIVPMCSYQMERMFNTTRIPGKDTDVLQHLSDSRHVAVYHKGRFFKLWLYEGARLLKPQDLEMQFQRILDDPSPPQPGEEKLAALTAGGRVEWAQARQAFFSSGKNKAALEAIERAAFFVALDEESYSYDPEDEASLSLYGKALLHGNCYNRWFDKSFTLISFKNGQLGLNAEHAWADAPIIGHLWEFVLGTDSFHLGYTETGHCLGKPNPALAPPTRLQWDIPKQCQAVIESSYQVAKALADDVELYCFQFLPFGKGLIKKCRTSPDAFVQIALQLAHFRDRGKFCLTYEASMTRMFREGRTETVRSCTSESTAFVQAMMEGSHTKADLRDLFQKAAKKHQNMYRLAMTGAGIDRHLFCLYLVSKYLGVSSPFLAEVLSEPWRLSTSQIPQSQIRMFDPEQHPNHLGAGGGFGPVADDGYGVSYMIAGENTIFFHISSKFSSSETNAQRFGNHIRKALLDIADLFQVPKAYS

[2] = SUPPLEMENTARY: PAMPA permeability assay; format: physicochemical; conditions: read-out: Permeability
[3] = molecular target: T2, Carnitine O-palmitoyltransferase 2, mitochondrial (Homo sapiens, UniProt P23786); experiment: (§1) SUPPLEMENTARY: Inhibition of Carnitine palmitoyltransferase 2
T2 sequence (P23786 whole entry): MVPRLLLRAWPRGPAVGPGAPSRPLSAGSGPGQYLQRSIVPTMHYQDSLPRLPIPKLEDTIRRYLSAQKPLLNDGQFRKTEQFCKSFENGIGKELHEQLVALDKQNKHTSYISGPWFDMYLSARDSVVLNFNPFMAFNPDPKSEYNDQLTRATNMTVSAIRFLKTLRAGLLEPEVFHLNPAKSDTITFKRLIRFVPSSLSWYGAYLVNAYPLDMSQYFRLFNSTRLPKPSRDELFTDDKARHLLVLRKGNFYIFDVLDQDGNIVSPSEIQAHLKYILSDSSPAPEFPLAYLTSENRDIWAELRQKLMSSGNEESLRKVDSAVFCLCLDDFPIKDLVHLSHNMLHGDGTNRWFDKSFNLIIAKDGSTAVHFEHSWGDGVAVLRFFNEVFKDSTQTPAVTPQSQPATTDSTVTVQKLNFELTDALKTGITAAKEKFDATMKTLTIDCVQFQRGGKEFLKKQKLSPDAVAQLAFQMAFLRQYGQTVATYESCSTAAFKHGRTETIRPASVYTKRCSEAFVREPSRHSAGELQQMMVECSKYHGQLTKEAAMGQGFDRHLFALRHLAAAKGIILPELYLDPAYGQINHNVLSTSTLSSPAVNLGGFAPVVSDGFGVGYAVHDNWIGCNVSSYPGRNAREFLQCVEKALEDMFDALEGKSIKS

[4] = molecular target: T3, Carnitine O-palmitoyltransferase 2, mitochondrial (Rattus norvegicus, UniProt P18886); experiment: as §1
T3 sequence (P18886 whole entry): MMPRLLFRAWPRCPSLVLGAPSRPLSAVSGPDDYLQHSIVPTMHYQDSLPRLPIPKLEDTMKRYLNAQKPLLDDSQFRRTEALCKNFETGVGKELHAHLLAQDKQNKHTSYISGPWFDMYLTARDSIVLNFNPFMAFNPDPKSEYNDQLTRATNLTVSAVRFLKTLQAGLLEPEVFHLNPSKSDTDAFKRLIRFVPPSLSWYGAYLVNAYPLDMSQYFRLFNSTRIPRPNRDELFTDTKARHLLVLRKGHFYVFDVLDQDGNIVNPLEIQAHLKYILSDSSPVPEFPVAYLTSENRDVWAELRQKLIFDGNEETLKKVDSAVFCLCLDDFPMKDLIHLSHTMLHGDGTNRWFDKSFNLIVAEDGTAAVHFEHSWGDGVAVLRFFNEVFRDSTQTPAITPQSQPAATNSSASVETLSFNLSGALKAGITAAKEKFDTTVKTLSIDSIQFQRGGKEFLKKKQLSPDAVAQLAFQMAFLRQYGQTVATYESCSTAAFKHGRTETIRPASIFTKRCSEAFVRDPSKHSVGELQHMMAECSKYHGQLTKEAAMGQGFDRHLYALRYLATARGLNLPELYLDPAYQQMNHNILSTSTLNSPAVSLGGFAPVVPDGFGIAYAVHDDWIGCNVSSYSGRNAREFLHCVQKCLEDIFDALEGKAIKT

[5] = SUPPLEMENTARY: Lyophilisation Solubility Assay (LYSA); format: physicochemical; conditions: read-out: Kinetic_solubility
[6] = molecular target: T4, Carnitine O-palmitoyltransferase 1, liver isoform (Homo sapiens, UniProt P50416); experiment: (§2) SUPPLEMENTARY: Inhibition of Carnitine palmitoyltransferase 1, liver isoform
T4 sequence (P50416 whole entry): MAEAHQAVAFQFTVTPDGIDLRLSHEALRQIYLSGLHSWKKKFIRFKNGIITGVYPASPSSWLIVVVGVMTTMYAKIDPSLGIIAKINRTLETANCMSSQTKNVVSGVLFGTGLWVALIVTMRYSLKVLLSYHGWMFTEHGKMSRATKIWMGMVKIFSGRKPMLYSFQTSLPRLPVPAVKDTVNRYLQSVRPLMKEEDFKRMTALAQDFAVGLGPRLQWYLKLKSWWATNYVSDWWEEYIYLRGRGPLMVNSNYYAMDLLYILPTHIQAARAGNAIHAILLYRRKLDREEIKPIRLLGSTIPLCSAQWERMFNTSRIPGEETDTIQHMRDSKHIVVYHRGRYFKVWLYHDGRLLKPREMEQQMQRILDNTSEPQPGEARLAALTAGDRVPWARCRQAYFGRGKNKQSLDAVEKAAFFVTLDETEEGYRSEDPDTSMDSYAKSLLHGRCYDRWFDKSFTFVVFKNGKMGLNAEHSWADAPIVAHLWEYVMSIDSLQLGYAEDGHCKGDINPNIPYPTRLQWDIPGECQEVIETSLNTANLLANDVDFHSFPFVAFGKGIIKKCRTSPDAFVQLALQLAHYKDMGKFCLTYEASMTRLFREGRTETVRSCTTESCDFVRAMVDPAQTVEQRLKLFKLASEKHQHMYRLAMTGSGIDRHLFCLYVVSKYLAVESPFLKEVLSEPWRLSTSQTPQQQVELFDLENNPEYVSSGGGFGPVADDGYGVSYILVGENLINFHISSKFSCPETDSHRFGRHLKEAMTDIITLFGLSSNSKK

[7] = SUPPLEMENTARY: Lipophilicity (log D) Determination by high-throughput shake-flask; format: physicochemical; conditions: octanol/water
[8] = molecular target: T5, Carnitine O-palmitoyltransferase 1, liver isoform (Rattus norvegicus, UniProt P32198); experiment: as §2
T5 sequence (P32198 whole entry): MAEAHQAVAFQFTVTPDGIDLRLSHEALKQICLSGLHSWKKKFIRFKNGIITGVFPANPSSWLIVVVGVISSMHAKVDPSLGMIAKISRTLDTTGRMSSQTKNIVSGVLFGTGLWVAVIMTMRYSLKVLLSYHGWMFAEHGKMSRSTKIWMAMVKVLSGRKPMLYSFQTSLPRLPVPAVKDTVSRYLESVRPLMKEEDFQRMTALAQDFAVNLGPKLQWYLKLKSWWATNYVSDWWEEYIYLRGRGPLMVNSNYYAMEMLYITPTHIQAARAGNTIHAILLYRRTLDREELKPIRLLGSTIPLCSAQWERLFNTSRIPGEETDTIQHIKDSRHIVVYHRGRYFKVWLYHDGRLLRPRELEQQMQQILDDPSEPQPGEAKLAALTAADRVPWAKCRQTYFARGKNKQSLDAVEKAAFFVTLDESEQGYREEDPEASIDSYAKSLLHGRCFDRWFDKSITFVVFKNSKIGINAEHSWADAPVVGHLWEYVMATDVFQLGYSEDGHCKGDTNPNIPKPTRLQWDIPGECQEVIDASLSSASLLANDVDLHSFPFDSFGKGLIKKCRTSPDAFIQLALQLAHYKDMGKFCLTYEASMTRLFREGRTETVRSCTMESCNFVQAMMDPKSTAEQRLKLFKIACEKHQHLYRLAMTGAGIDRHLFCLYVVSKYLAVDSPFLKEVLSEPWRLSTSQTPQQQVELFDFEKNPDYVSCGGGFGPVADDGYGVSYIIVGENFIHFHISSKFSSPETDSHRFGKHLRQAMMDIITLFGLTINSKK

| pIC50 [1] | Papp [2] [×10⁻⁶ cm/s] | pIC50 [3] | pIC50 [4] | solubility kinetic [5] [µg/mL] | pIC50 [6] | logD [7] | pIC50 [8] | SMILES |
| --- | --- | --- | --- | --- | --- | --- | --- | --- |
| < 4.00 | 3.3 | 4.67 | 4.20 | 172 (≈ 373 µM) | 6.90 | 1.51 | – | O=C1CCC(=O)N1c1cccc(-c2n[nH]c([C@H]3CCCCN3C(=O)COc3ccccc3)n2)c1 |
| < 4.00 | 0.02 | < 4.00 | < 4.00 | 88 (≈ 312 µM) | 6.18 | 0.42 | – | COc1ccc2[nH]cc(C(=O)COc3ccncc3)c2c1 |
| < 4.00 | 0.53 | 4.22 | – | 7 (≈ 19.4 µM) | 6.80 | 3.63 | 6.43 | O=C(COc1ccccc1)N1CCCCC1c1cc(-c2ccccc2)n[nH]1 (configuration not stated) |
| < 4.00 | 0.65 | < 4.00 | – | 7 (≈ 18.4 µM) | 7.44 | 3.24 | 7.01 | O=C(COc1ccccc1)N1CCCC[C@@H]1c1nc(-c2cccc(O)c2)no1 |
| 4.84 | 2.9 | 4.75 | – | 211 (≈ 410 µM) | 6.54 | 1.5 | 6.74 | COc1ccc(Cl)cc1S(=O)(=O)N1CCCCc2ccc(C(=O)Nc3ccc(C(=O)O)cc3)cc21 |
| < 4.00 | 2.02 | 4.63 | – | 87 (≈ 207 µM) | 6.58 | 1.65 | 5.79 | NNC(=O)c1cccc(-c2n[nH]c([C@H]3CCCCN3C(=O)COc3ccccc3)n2)c1 |
| < 4.00 | 1.7 | 4.47 | – | 24 (≈ 53.8 µM) | 6.94 | 2.42 | 6.44 | O=C(COc1ccccc1)N1CCCC[C@@H]1c1nc(-c2cccc(-c3n[nH]c(=O)o3)c2)n[nH]1 |
| 6.13 | 3.05 | 4.06 | – | 26 (≈ 60.4 µM) | 7.10 | 2.66 | 6.41 | O=C(COc1ccccc1)N1CCCC[C@@H]1c1nc(-c2cccc(-c3nnco3)c2)n[nH]1 |
| < 4.00 | 3.4 | < 4.00 | – | 132 (≈ 309 µM) | 6.79 | 2.19 | 6.61 | COc1ccc(-c2noc(C3C[S+]([O-])CCN3C(=O)COc3ccccc3)n2)cc1 (configuration not stated) |
| 4.51 | 4.15 | 4.81 | – | 11 (≈ 27 µM) | 7.17 | 2.16 | 6.69 | O=C(COc1ccccc1)N1CCCC[C@@H]1c1nc(-c2cccc(B(O)O)c2)no1 |
| < 4.00 | 3.01 | 4.02 | – | 2 (≈ 4.23 µM) | 7.18 | 2.92 | 7.05 | O=C(O)c1ccc(NC(=O)c2ccc3c(c2)N(S(=O)(=O)c2cccc(Cl)c2)CCO3)cc1 |
| 5.52 | 2.54 | 4.92 | – | 36 (≈ 65.5 µM) | 6.43 | 0.66 | 6.73 | COc1ccc(Cl)cc1S(=O)(=O)N1CCCCc2ccc(C(=O)Nc3ccc(C(=O)O)c(Cl)c3)cc21 |
| < 4.00 | 3.8 | 4.05 | – | 362 (≈ 859 µM) | 6.69 | 2.09 | 6.37 | CNC(=O)c1cncc(-c2noc([C@H]3CCCCN3C(=O)COc3ccccc3)n2)c1 |
| < 4.00 | 5.44 | 5.04 | – | 431 (≈ 930 µM) | 6.66 | 2.5 | 6.45 | CCN(CC)C(=O)c1cncc(-c2noc([C@H]3CCCCN3C(=O)COc3ccccc3)n2)c1 |
| < 4.00 | 4.13 | 5.13 | – | > 559 | 6.78 | 1.83 | 6.33 | COCCN(C)C(=O)c1cncc(-c2noc([C@H]3CCCCN3C(=O)COc3ccccc3)n2)c1 |
| 4.34 | 0.37 | 4.70 | – | > 547 | 6.71 | -0.64 | 6.23 | O=C(O)COc1cccc(-c2noc([C@H]3CCCCN3C(=O)COc3ccccc3)n2)c1 |
